# Measurements reported in the SangsterLogP compilation.
# Conditions: not given
row,Structure (SMILES),logP
1,Cc1cnc(C2=NC(C)(C(C)C)C(=O)N2)c(C(=O)O)c1 (configuration not stated),0.39
2,CCOC1Oc2ccc(OS(C)(=O)=O)cc2C1(C)C (configuration not stated),2.7
3,CC1(C)CC/C(=C\c2ccc(Cl)cc2)C1(O)Cn1cncn1 (configuration not stated),3.29
4,CCC(=O)Nc1ccc(Cl)c(Cl)c1,3.3
5,CCCCCOC(=O)COc1cc(N2C(=O)C3=C(CCCC3)C2=O)c(F)cc1Cl,4.99
6,CCOP(=S)(OCC)Oc1ccc(=O)n(-c2ccccc2)n1,3.2
7,COc1ccc(/C(=C\C(=O)N2CCOCC2)c2ccc(Cl)cc2)cc1OC,2.73
8,CCOP(=S)(OCC)Oc1nc(Cl)n(C(C)C)n1,2.99
9,Cl/C=C\CCl,2.06
10,CCCSP(=O)(OCC)Oc1ccc(Br)cc1Cl (configuration not stated),4.44
11,C#CCOS(=O)OC1CCCCC1Oc1ccc(C(C)(C)C)cc1 (configuration not stated),3.73
12,CCOc1ccc(C2(C(=O)OC(C#N)c3cccc(Oc4ccccc4)c3)CC2(Cl)Cl)cc1 (configuration not stated),4.19
13,O=[N+]([O-])c1ccc(NS(=O)(=O)c2ccc(Cl)c(C(F)(F)F)c2)c(Cl)c1,2.4
14,O=C1C(Cl)=C(Cl)C(=O)N1c1ccc(F)cc1,2.3
15,COC(=O)c1c(Cl)c(Cl)c(C(=O)OC)c(Cl)c1Cl,4.28
16,CCSCc1ccccc1OC(=O)NC,2.04
17,C=CCCCOC(=O)C(CC)N(Cc1ccco1)C(=O)n1ccnc1 (configuration not stated),3
18,Nc1cnn(-c2ccccc2)c(=O)c1Cl,1.19
19,OC1(c2ccc(Cl)cc2)CCCCCC1n1cncn1 (configuration not stated),3.02
20,CNC(=O)ON=C(C)C(C)SC (configuration not stated),1.11
21,CN(C)C(=O)Nc1ccc(Cl)c(Cl)c1,2.85

row,Structure (SMILES),logP
1,COP(=S)(OC)Oc1ccc(C#N)cc1,2.65
2,CC(C)N(Cc1ccccc1)C(=O)C(C)(C)C,3
3,CCOC(=O)[C@@H](C)Oc1ccc(Oc2nc3ccc(Cl)cc3o2)cc1,4.58
4,CCCCOC(=O)N(C)SN(C)C(=O)Oc1cccc2c1OC(C)(C)C2,4.6
5,CCOP(=O)(SC(C)CC)SC(C)CC (configuration not stated),3.9
6,CC(C)NC(=O)N1CC(=O)N(c2cc(Cl)cc(Cl)c2)C1=O,3
7,C=CCNC(=O)CN(CC=C)C(=O)C(Cl)Cl,1
8,CC(C)=CC1C(C(=O)OCc2coc(Cc3ccccc3)c2)C1(C)C (configuration not stated),5.4
9,COC(=O)C(C)N(C(=O)c1ccco1)c1c(C)cccc1C (racemic),2.7
10,NC(=O)c1nc(-c2ccccc2)n(-c2ccc(Cl)c(COCC(F)(F)C(F)(F)F)c2)n1,3.27
11,CCCCOC(=O)[C@@H](C)Oc1ccc(Oc2ccc(C(F)(F)F)cn2)cc1,4.5
12,CCCCC(CC)N1C(=O)C2C3C=CC(C3)C2C1=O (configuration not stated),3.8
13,COP(=O)(OC)OC1=C(Cl)C2C=CCC12 (configuration not stated),2.32
14,O=C(Nc1ccc(Cl)cc1C(O)c1ccccc1)c1ccncc1 (configuration not stated),3.13
15,CCSC(C)CC1CC(=O)C(/C(CC)=N/OC/C=C/Cl)=C(O)C1 (configuration not stated),4.19
16,CCOCN(C(=O)CCl)c1c(C)cccc1CC,3.03
17,COCC(C)N(C(=O)CCl)c1c(C)csc1C (configuration not stated),2.15
18,O=c1oc2ccccc2c(O)c1C1CC(c2ccc(OCc3ccc(C(F)(F)F)cc3)cc2)Cc2ccccc21 (configuration not stated),4.7
19,CC1(C)CON(Cc2ccccc2Cl)C1=O,2.5
20,CC(C)c1cc(Oc2ccccc2)cc(C(C)C)c1NC(=S)NC(C)(C)C,5.76
21,CN(C)C(=O)Nc1cc(C(C)(C)C)on1,1.98

row,Structure (SMILES),logP
1,CC(C)OC(=O)C(O)(c1ccc(Br)cc1)c1ccc(Br)cc1,5.4
2,CCCOC(=O)c1ccc(C(=O)OCCC)nc1,3.57
3,CC1COc2ccccc2N1C(=O)C(Cl)Cl (configuration not stated),2.7
4,CCSCCSP(=S)(OC)OC,3.46
5,O=C1C2CC=CCC2C(=O)N1SC(Cl)(Cl)Cl (configuration not stated),2.78
6,CCOCCOC(=O)C(C)Oc1ccc(Oc2ncc(C(F)(F)F)cc2Cl)cc1 (configuration not stated),4.33
7,Clc1ccccc1-c1nnc(-c2ccccc2Cl)nn1,3.1
8,COCCN(C(=O)CCl)c1c(C)cccc1C,2.2
9,CC1(C)C(C=C(Cl)Cl)C1C(=O)OC(C#N)c1ccc(F)c(Oc2ccccc2)c1 (configuration not stated),5.93
10,CCN(CC)C(=O)SCc1ccccc1Cl,3.43
11,C/C=C\COCN(C(=O)CCl)c1c(CC)cccc1CC,3.51
12,CCNc1nc(Cl)nc(NCC)n1,2.1
13,CC1(C)CCC(Cc2ccc(Cl)cc2)C1(O)Cn1cncn1 (configuration not stated),3.93
14,O=S(=O)(c1ccc(Cl)cc1)c1cc(Cl)c(Cl)cc1Cl,4.61
15,C=CCN(CC=C)C(=O)C(Cl)Cl,1.84
16,CC(C)OC(=O)C(C(=O)OC(C)C)=C1SCCS1,3.3
17,CN(C)C(=O)Nc1ccc(-n2nc(C(C)(C)C)oc2=O)c(Cl)c1,2.51
18,CCOC(=O)c1cn2nc(OP(=S)(OCC)OCC)cc2nc1C,3.8
19,CCOc1nc(C(Cl)(Cl)Cl)ns1,3.37
20,CC1(C)[C@H](C(=O)O[C@H](C#N)c2cccc(Oc3ccccc3)c2)[C@@H]1C(Br)C(Br)(Br)Br (some centres not stated),5
21,CCOC(=O)C1(C)OC(=O)N(c2cc(Cl)cc(Cl)c2)C1=O (configuration not stated),3.3

row,Structure (SMILES),logP
1,CC(C)=CC1C(C(=O)OCN2C(=O)C3=C(CCCC3)C2=O)C1(C)C (configuration not stated),4.49
2,O=CNC(N1CCN(C(NC=O)C(Cl)(Cl)Cl)CC1)C(Cl)(Cl)Cl (configuration not stated),2.2
3,CCC1OCC(COc2ccc(Oc3ccccc3)cc2)O1 (configuration not stated),4.3
4,CON(C)C(=O)Nc1ccc(Br)cc1,2.41
5,C/C=C/C(=O)Oc1c(C(C)CCCCCC)cc([N+](=O)[O-])cc1[N+](=O)[O-] (configuration not stated),4.54
6,CCNP(=S)(OC)O/C(C)=C/C(=O)OC(C)C (configuration not stated),3.82
7,O=C1c2ccccc2C(=O)N1SC(Cl)(Cl)Cl,3.11
8,O=C(NC(=O)c1ccccc1Cl)Nc1ccc(OC(F)(F)F)cc1,4.91
9,COP(=S)(OC)Oc1ccc(Sc2ccc(OP(=S)(OC)OC)cc2)cc1,4.91
10,CC(C)N1C(=O)N(c2ccccc2)CS/C1=N\C(C)(C)C,4.3
11,CCOC(=O)C(Cl)Cc1cc(-n2nc(C)n(C(F)F)c2=O)c(F)cc1Cl (configuration not stated),3.36
12,C[C@@H](Oc1ccc(Oc2ccc(C#N)cc2F)cc1)C(=O)O,3.31
13,COC(C)(C)CCCC(C)C/C=C/C(C)=C/C(=O)OC(C)C (configuration not stated),5.21
14,CCSCCSP(=O)(OC)OC,1.32
15,CC1=NNC(=O)N(/N=C/c2cccnc2)C1,-0.18
16,CC(Oc1ccc(Oc2ncc(Cl)cc2Cl)cc1)C(=O)N1CCCO1 (configuration not stated),3.36
17,CCN(CC)C(=O)C(C)Oc1cccc2ccccc12 (configuration not stated),3.3
18,CCCCC(CC)CN1C(=O)C2C3C=CC(C3)C2C1=O (configuration not stated),3.7
19,CC(C)C1CCC(Cc2ccc(Cl)cc2)C1(O)Cn1cncn1 (configuration not stated),4.21

# Conditions: not given
# Remark: another data set of the same source
row,Structure (SMILES),logP
1,Cc1ccc2nc3sc(=O)sc3nc2c1,3.78
2,CC1(C)OC(c2ccco2)CN1C(=O)C(Cl)Cl (configuration not stated),2.12
3,CC1=C(C)S(=O)(=O)CCS1(=O)=O,-0.17
4,CNC(=O)CSP(=O)(OC)OC,-0.75
5,[O-][n+]1nc(-n2ccnc2)nc2ccc(Cl)cc21,2.04
6,CCCN(CCC)C(=O)SCc1ccccc1,4.65
7,O=C(NC(=O)c1c(F)cccc1F)Nc1cc(Cl)c(OC(F)(F)C(F)C(F)(F)F)cc1Cl (configuration not stated),5.12
8,CC1(C)[C@H](C(=O)O[C@H](C#N)c2cccc(Oc3ccccc3)c2)[C@@H]1/C=C\C(=O)OC(C(F)(F)F)C(F)(F)F,5.26
9,CCOP(=S)(OCC)OC(Cl)C(Cl)(Cl)Cl (configuration not stated),4.59
10,CCCN(CCC)c1c([N+](=O)[O-])cc(C(F)(F)F)c(N)c1[N+](=O)[O-],4.1
11,CCN(Cc1c(F)cccc1Cl)c1c([N+](=O)[O-])cc(C(F)(F)F)cc1[N+](=O)[O-],5.45
12,COc1ccsc1CN(C(=O)CCl)c1c(C)cccc1C,3.53
13,FC(F)C(F)(F)OCC(Cn1cncn1)c1ccc(Cl)cc1Cl (configuration not stated),3.53
14,C#CCC1=C(C)C(OC(=O)C2C(C=C(C)C)C2(C)C)CC1=O (configuration not stated),4.49
15,CCCCCCCCn1sccc1=O,2.45
16,C#CCOC(=O)[C@@H](C)Oc1ccc(Oc2ncc(Cl)cc2F)cc1,3.9
17,COCC(=O)N(c1c(C)cccc1C)N1CCOC1=O,0.73
18,C/C(=N\C#N)N(C)Cc1ccc(Cl)nc1,0.8
19,O=C(Nc1ccccc1)Nc1ccnc(Cl)c1,3.2
20,CC(Oc1ccc(Oc2cnc3cc(Cl)ccc3n2)cc1)C(=O)OCC1CCCO1 (configuration not stated),4.32
21,COC(=O)c1c(C(F)F)nc(C(F)(F)F)c(C2=NCCS2)c1CC(C)C,3.89
22,CCCCCC(C)OC(=O)COc1ccc(Cl)c2cccnc12 (configuration not stated),5.03
23,Clc1ccc(C2(Cn3cncn3)CC(Br)CO2)c(Cl)c1 (configuration not stated),3.24
24,CCOC(=O)Cn1c(=O)sc2cccc(Cl)c21,2.5
25,CCS(=O)(=O)Oc1ccc2c(c1)C(C)(C)CO2,2.41
26,CC(C)(C)C(O)/C(=C\c1ccc(Cl)cc1)n1cncn1 (configuration not stated),3.67

# Same assay, conditions: pH 2.0
row,logD,Structure (SMILES)
1,1.63,COc1cc(OC)nc(NC(=O)NS(=O)(=O)N(C)S(C)(=O)=O)n1

# Same assay, conditions: pH 5.0
row,Structure (SMILES),logD
1,CCS(=O)(=O)c1cccnc1S(=O)(=O)NC(=O)Nc1nc(OC)cc(OC)n1,0.29
2,Cc1cc(C2CC2)nc(Nc2ccccc2)n1,3.9

# Same assay, conditions: pH 5.6
row,Structure (SMILES),logD
1,O=c1c2cc(F)ccc2nc(-n2cncn2)n1-c1ccc(Cl)cc1Cl,3.24

# Same assay, conditions: pH 6.1
row,Structure (SMILES),logD
1,Cc1cc(C)nc(Nc2ccccc2)n1,2.84

# Same assay, conditions: pH 6.5
row,Structure (SMILES),logD
1,COc1ccc(C(O)(c2cncnc2)C2CC2)cc1 (configuration not stated),1.91
2,CNC(=O)ON=C(C)C(C)S(C)(=O)=O (configuration not stated),1.11

# Same assay, conditions: pH 7.0
row,Structure (SMILES),logD
1,COc1cc(OC)n2nc(S(=O)(=O)Nc3c(Cl)ccc(C)c3Cl)nc2n1,2.46
2,CN1CSC(=S)N(C)C1,1.4
3,CCOC(=O)CCN(SN(C)C(=O)Oc1cccc2c1OC(C)(C)C2)C(C)C,4.3
4,CCOC(=O)CSc1nc(C(C)(C)C)nn1C(=O)N(C)C,2.69
5,CC(C1CC1)C(O)(Cn1cncn1)c1ccc(Cl)cc1 (configuration not stated),2.91
6,CC(C)C(O)(c1ccc(OC(F)(F)F)cc1)c1cncnc1 (configuration not stated),3.34

# Same assay, conditions: pH 7.3
row,Structure (SMILES),logD
1,O=C(Nc1ccccc1)Nc1cnns1,1.77
